Experiments:
L1-ORF1p = L1-ORF1p expression by immunoblotting in lung cells treated with NCL antagonists; type: cell-based, human
Procedure: Cell lines were purchased from the American Type Culture Collection (ATCC). Cells were grown in a humidified environment at 37° C. with 5% CO2. Cell lines were confirmed to be free of mycoplasma contamination (MycoAlert; Lonza). NSCLC cell lines (NCI-H460, NCI-H520, NCI-H1299, and A549) were grown in RPMI medium supplemented with fetal bovine serum at a concentration of 10%, […] penicillin and […] streptomycin (Life Technologies). The human bronchial epithelial cell lines BEAS-2B and BZR were grown in LHC-9 medium (Thermo Fisher Scientific). Verification of all cell line identities was performed by short tandem repeat (STR) sequencing using reference databases from ATCC (Genetics Core, University of Arizona, AZ). […] All protein concentrations were determined using the bicinchoninic acid assay (Thermo Fisher Scientific).
Total cell lysates were resolved by SDS-polyacrylamide gel electrophoresis and electrotransferred onto polyvinylidene fluoride membranes (Millipore) in Tris-glycine buffer containing 20% methanol. Proteins were detected by immunoblotting. […]

[1] = tested on: ORFeus^LSL transgene (human LINE-1); test: ORFeus LINE-1 mRNA by RT-qPCR in mouse tissues; type: in vivo, mice
Procedure: (§1) A BioLite Intubation System (Braintree Scientific Inc, USA) was used for intratracheal instillation of ORFeus^LSL mice (29-38 g) anesthetized with ketamine and xylazine (100 mg/kg and 10 mg/kg, respectively). All mice were genotyped to confirm genetic identity. Control mice were given one dose of 5×10^10 PFU adenoCRE recombinase dissolved in H2O or DMSO. […] Mice were sacrificed by cervical dislocation after euthanasia with CO2 one-week after treatment. Tissues were collected and stored at 4° C. in RNA later (Thermo Fisher Scientific, CA).
RNA was extracted using the RNeasy Plus Mini Kit (Qiagen, MD). An aliquot of 250 ng RNA was reverse transcribed into first-strand cDNA using SuperScript® III (Invitrogen, CA). RT-qPCR was carried out for LINE-1 and nine genes within its oncogenic regulatory network. […] GAPDH was used as a control. Each reaction included 4.0 μL of cDNA, 0.5 μL of gene-specific primer pairs, and 5.0 μL SyberGreen dye and ddH2O to a final volume of 20 μL. Amplifications were completed using StepOnePlus™ RT-qPCR System and fold changes calculated using 2^−ΔΔct.

[2] = tested on: Lung tissues in ORFeus^LSL mice; test: Lung histology and general toxicity after intratracheal instillation; type: in vivo
Procedure: as §1, with “DMSO. The optimal adenovirus dose was defined empirically as a dose that only modestly activated the transgene.” for “DMSO.”
Lung sections were snap-frozen in OCT. Tissues were fixed with cold acetone and stained with hematoxylin and eosin. Samples were evaluated blindly by two pathologists.

LINE-1 = LINE-1 mRNA and ORF1p in extracellular vesicles of BaP-stimulated H460 cells; type: cell-based, human; conditions: 48 h, various concentrations
Procedure: EV isolation: Media were centrifuged at 500×g for 5 min to remove cells and concentrated using a 100 kDa MWCO Amicon filter. Samples were then centrifuged at 25,000×g for 30 min to pellet apoptotic vesicles and cellular debris followed by ultracentrifugation at 100,000×g for 2 h. The EV pellet was washed in PBS and either re-centrifuged at 100,000×g or loaded onto an iodixanol gradient.
Total RNA was harvested (Zymo) and subjected to post-elution DNAse digestion. A cDNA was created using oligo d (T) primers. Gene expression analysis was performed via qPCR using probe-based detection. Expression was expressed as a fold change from the EV-free medium (EFM).

[3] = tested on: H460 large cell lung cancer cells; test: Exosome quantity and size by Nanosight NTA after BaP exposure; type: cell-based, Human; design: number of exosomes released per cell: dose or concentration left out as unconfirmed
Text: (§2) Human 460 large cell lung carcinoma cells were authenticated by the UA tissue culture core facility and then cultured in RPMI media (Gibco) supplemented with 10% exosome-free FBS. One day before exposure, cells were counted, seeded, and allowed to attach overnight. Prior to each exposure, medium was removed and cells were washed with PBS to remove cellular debris and extracellular vesicles. After exposure, culture medium was harvested for exosome collection, cells were detached with trypsin-EDTA (Gibco), counted via hemocytometer, and cell viability was assessed using trypan blue exclusion.
Cell media was centrifuged at 500×g for 5 minutes to remove cells and large debris and then stored at −80° C. To isolate exosomes, cell medium was centrifuged at 25,000×g for 1.5 hours to remove apoptotic bodies and other large extracellular vesicles. To precipitate exosomes, polyethylene glycol (PEG) MW 6,000 was added to the supernatant to a final concentration of 10% (w/v), and centrifuged again at 15,000×g for 30 minutes. Each exosome pellet was resuspended in 2 mL PBS, which was then subdivided into fractions for Nanosight Nanoparticle Tracking Analysis (NTA), nucleic acid extraction, and protein extraction. Nucleic acids and proteins present outside of exosomes were enzymatically digested to prevent confounding of exosome cargo analysis. Exosome fractions designated for nucleic acid analysis were treated with DNAseI for 30 minutes at 37° C. and RNAseA for 5 minutes at RT and then supplemented with RNA Secure (Invitrogen) prior to lysis. Exosome fractions designated for protein analysis were treated with proteinaseK for 30 minutes at 37° C. Following enzymatic digestion, exosomes were pelleted a final time by addition of PEG 6,000 to 10%, and centrifugation at 15,000×g for 15 minutes. To assess exosome size and quantity, Nanosight NTA was performed. Each sample was read five times and the sample grand mean and standard error for each nanoparticle size bin were reported. Nanosight experiments were performed in technical duplicate. […]

LINE-1 mRNA = LINE-1 mRNA and RNA in cells and exosomes by RT-qPCR; type: cell-based, Human; conditions: H460 exosomes
Text: as §2
(§3) Nucleic acids were extracted from cell and exosome pellets using the Quick DNA-RNA Miniprep Plus. RNA was subjected to an additional DNAseI digestion on-column (RNA from cells) or prior to reverse transcription (RNA from exosomes; Turbo DNA-free; Invitrogen). Following isolation DNA and RNA quantity and integrity were assessed using the Cytation X system. LINE-1 mRNA was detected in equal volumes of exosome RNA using OneStep RT-qPCR (NEB). To assess cellular LINE-1 mRNA levels, LINE-1 mRNA was normalized to B-Actin mRNA and expressed as a fold change from control using the Pfaffl technique. […] Briefly, the fluorescence units from the reverse transcription control (RTC; no reverse transcriptase enzyme) for each sample was subtracted from the complete sample amplification and the remaining fluorescence units were divided by cell number. The resulting values approximate the amount of LINE-1 or BActin mRNA present in exosomes that is also normalized by cell number. LINE-1 DNA copies were quantified using absolute qPCR quantification. Briefly, known copy numbers of plasmids bearing the LINE-1 sequence were used to create a standard curve, which could then be used to calculated copy number from samples. These copy numbers were then divided by cell number to yield the number of LINE-1 DNA copies per cell (cellular DNA) and the number of exosome LINE-1 DNA copies per cell (exosome DNA).

LINE-1 DNA = LINE-1 DNA copies in cells and exosomes by absolute qPCR; type: cell-based, Human; conditions: for exosome LINE-1 DNA copies released per cell, mean (±SE): H460 exosomes
Text: as §2, §3

[4] = tested on: Human 460 large cell lung carcinoma cells; test: BaP exposure of H460 cells: cell count and trypan blue viability; type: cell-based; conditions: for cell number at conclusion of exposure, mean (±SEM): 48 hour
Text: as §2

[5] = target: the molecule itself; test: Western blot of EV iodixanol gradient fractions (self-association)

## 5′-GGTGGTGGTGGTTGTGGTGGTGGTGG-3′ (SEQ ID NO:2) (DNA, backbone not given here) [AS1411, oligodeoxynucleotide DNA aptamer targeting nucleolin]
L1-ORF1p; NCI-H520 cells, high concentrations (20 μM)
  L1-ORF1p protein expression: without effect
L1-ORF1p; any of the cell lines (data not shown)
  L1-ORF1p protein expression: without effect

## c1ccc2c(c1)cc1ccc3cccc4ccc2c1c34 [BaP, benzo[a]pyrene]
[1]; male and female lungs, one week after treatment
  ORFeus LINE-1 mRNA expression in lung: significantly increased expression of the transgene
[1]; stomach, heart, kidney, liver, intestine
  activation of the LINE-1 transgene in other tissues: only stomach, but not heart, kidney, liver or intestine, showed activation of the LINE-1 transgene
[2]; ORFeus^LSL mice, at any time
  toxic effects in treated mice: No dramatic toxic effects
[2]; mouse, in vivo
  lung histology: leukocytic infiltration: significant leukocytic infiltration into the lungs
  lung histology: vessel congestion and mononuclear cell infiltration: pulmonary vessel congestion with focal-to-diffuse mononuclear cell infiltration into parenchyma
LINE-1
  EV LINE-1 levels versus cellular LINE-1 levels: mirrored within EVs
[3]; 0.25 μM
  size range in which more exosomes were produced: 64.5 to 71.5 nM
[3]; 1 μM
  size range in which more exosomes were produced: 61.5 to 77.5 nM
[3]; particles 30-150 nm normalized to cell number
  number of exosomes released per cell: increased
LINE-1 mRNA
  exosome LINE-1 mRNA, Pfaffl method normalized to B-Actin mRNA: did not observe significant increases
LINE-1 mRNA; 0.25 μM
  LINE-1 mRNA export in exosomes per cell: approximately two-fold
LINE-1 mRNA; 0.5 μM
  LINE-1 mRNA export in exosomes per cell: approximately two-fold
LINE-1 mRNA; 1 μM
  LINE-1 mRNA export in exosomes per cell: decreased export
  quantity of total exosome RNA: 83.26 ± 16.94 ng
LINE-1 mRNA; fluorescence units adjusted by cell number
  exosome B-Actin mRNA released per cell: dose-dependent increases
LINE-1 DNA; H460 cells
  cellular LINE-1 DNA copies per cell: did not significantly change
LINE-1 DNA; 0.25 μM
  exosome LINE-1 DNA copies released per cell, mean (±SE): 61.04±31.3 copies
LINE-1 DNA; 0.5 μM
  exosome LINE-1 DNA copies released per cell, mean (±SE): 62.43±28.98 copies
LINE-1 DNA; 1 μM
  exosome LINE-1 DNA copies released per cell, mean (±SE): 85.96±51.21 copies
[4]; 48 hour exposure
  cell proliferation: reduce cell proliferation in a dose-dependent manner
[4]; 0.5 μM
  cell number at conclusion of exposure, mean (±SEM): 14.0±2.3 million cells
[4]; 1 μM
  cell number at conclusion of exposure, mean (±SEM): 11.1±1.9 million cells

B1: human LINE-1 ORF1 protein (L1-ORF1p) (other, UniProt Q9UN81 1-338, looked up)
chain: MGKKQNRKTGNSKTQSASPPPKERSSSPATEQSWMENDFDELREEGFRRSNYSELREDIQTKGKEVENFEKNLEECITRITNTEKCLKELMELKTKARELREECRSLRSRCDQLEERVSAMEDEMNEMKREGKFREKRIKRNEQSLQEIWDYVKRPNLRLIGVPESDVENGTKLENTLQDIIQENFPNLARQANVQIQEIQRTPQRYSSRRATPRHIIVRFTKVEMKEKMLRAAREKGRVTLKGKPIRLTADLSAETLQARREWGPIFNILKEKNFQPRISYPAKLSFISEGEIKYFIDKQMLRDFVTTRPALKELLKEALNMERNNRYQPLQNHAKM
notes: Endogenous protein detected on Western blots of human cell lysates and EV extracts; Seen as a monomer, a dimer and higher multimers
[5]
  binding result: binds

— patent US12698534B2, “Systems and methods for characterizing and treating disease” (Arizona Board of Regents on Behalf of the University of …, priority 2019, dated 2026)
